Source: patent US8865220B2, “Method for controlled release of parathyroid hormone from encapsulated poly(lactic-glycolic)acid microspheres” (Kaohsiung Medical University, priority 2010, dated 2014)
“And” between values parts separate entries of the source, which are not always exact repeats. Equal entries are not always repeated. Where two headings read alike, the source gives them in different places.

Tests used:
[1] = system: papain induced osteoarthritis; conditions: injection once in three days for 5 weeks; cited from earlier work
[2] = system: MC3T3-E1 cells; assay: Bioactivity of released PTH(1-34): intracellular cAMP; type: cell-based; conditions: PTH(1-34) released from microspheres at 1 and 3 days; 6 hrs incubation
Description: Activity of controlled released PTH(1-34) was determined by measuring cAMP contents in cells treated with released PTH(1-34). For these experiments, the MC3T3-E1 was cultured in α-MEM supplemented with 10% fetal bovine serum and […] ascorbic acid. The cells were seeded onto 24-well plates at a density of 50,000 cells/well. After 6 hrs of incubation with released PTH (1-34) from microspheres, the cells were lysed directly in the medium by adding 0.1 N HCl and 0.5 mM isobutylmethylxanthine to protect the produced cAMP. Intracellular cAMP was measured using a commercially available ELISA kit (Endogen/Pierce, Rockford, Ill.) following the manufacturer's instructions.

[3] = pulmonary route, cited from earlier work
[4] = system: papain-induced osteoarthritis, articular cartilage; assay: Papain-induced osteoarthritis, histology and immunohistochemistry of articular cartilage; type: in vivo, rat
Description: The animal experiments were approved by the Animal Care and Use Committee of Kaohsiung Medical University. Fifty-four 12-week-old male Sprague-Dawley rats (250-300 gm) were purchased from BioLASCO Taiwan and housed under standard laboratory conditions (temperature 24° C., 12-hour light-dark cycle) with food and water ad libitum. The animals were acclimatized to the laboratory environment for 1 week before the experiments.
Each left knee, which served as the contralateral control joint, received the vehicle without PTH treatment or OA-induction. The right knees were the study joints. Rats were divided into five groups: Non-OA+PTH [PTH(1-34) treatment without OA-induction] (n=6), Non-OA+PTH/PLGA [PTH/PLGA microspheres treatment without OA-induction] (n=6), OA [OA-induction without PTH(1-34) treatment] (n=6), OA+PTH [PTH(1-34) treatment followed by OA-induction] (n=6), and OA+PTH/PLGA [PTH/PLGA microspheres treatment followed by OA-induction] (n=6). OA was induced in the right knees of rats in the OA and OA+PTH groups with intra-articular injections of 20 μl of 4% papain solution and 20 μl of 0.03 M cystein. The injections were given with a 26-gauge needle via the patellar tendon on days 1, 4, and 7 of the experiment (13). In the OA+PTH group, after OA-induction, the right knees were injected intra-articularly with 40 μl of 10 nM PTH(1-34) every three days until sacrifice. In the PTH group, the same PTH(1-34) treatment was performed but without OA-induction. In the OA+PTH/PLGA group, after OA-induction, the right knees were injected intra-articularly with 0.4 mg of PTH/PLGA microspheres at 1st and 15th day. The rats were sacrificed with an overdose of CO2-inhaled at the same time point at 5 weeks.
After sacrifice, the knees of each rat were harvested, and the tibia plateaus with articular cartilage were collected and fixed with 10% neutral buffered formalin prior to histological preparation. The samples were then decalcified in 10% formic acid/PBS. The decalcified tibia articular samples were paraffin embedded, and 5 μm microsections in the coronary plane were prepared. GAG was stained with Safranin-O-Fast-Green (1% Safranin-O counter-stained with 0.75% hematoxylin and then 1% fast green) (Sigma, St. Louis, Mo.). Localized type II Collagen and type X collagen were immuno-stained.
GAG was stained red by Safarinin-O, and the total and red-stained areas in the articular cartilage of each proximal tibia were measured using the Image-Pro plus 5.0 software (FIG. 6C) (Media Cybernetics Inc. MD, USA). The ratio of red stained area to total area (red/total) in each group was calculated.
The tibia articular sections were re-hydrated, and the endogenous peroxidase in tissues was blocked with 3% hydrogen peroxide. Samples were digested by enzymes for epitope retrieval before incubation with primary antibodies. The method for enzyme digestion was modified from a previous report (20). The optimal condition for the enzyme digestion for type II collagen immuno-staining was a mixture of 2.5% hyluronidase and 1 mg/ml pronase in PBS (pH 7.4) (Sigma, St. Louis, Mo.) at 37° C. for 1 hour. For type X collagen immuno-staining the optimal condition was 0.1 U/ml chondroitinase ABC (Sigma, St. Louis, Mo.) for 1 hour and pepsin 1 mg/ml in tris-HCl (pH 3.0) at 37° C. for 15 minutes. […]

[5] = oral administration, in comparison to subcutaneous administration; cited from earlier work
[6] = Non-OA study joints (no OA-induction)
[7] = OA-induced study joints, intra-articular, 5 weeks

Q: Which results are given for `CC[C@H](C)[C@H](NC(=O)[C@H](CCC(=O)O)NC(=O)[C@H](CO)NC(=O)[C@@H](NC(=O)[C@@H](N)CO)C(C)C)C(=O)N[C@@H](CCC(N)=O)C(=O)N[C@@H](CC(C)C)C(=O)N[C@@H](CCSC)C(=O)N[C@@H](Cc1cnc[nH]1)C(=O)N[C@@H](CC(N)=O)C(=O)N[C@@H](CC(C)C)C(=O)NCC(=O)N[C@@H](CCCCN)C(=O)N[C@@H](Cc1cnc[nH]1)C(=O)N[C@@H](CC(C)C)C(=O)N[C@@H](CC(N)=O)C(=O)N[C@@H](CO)C(=O)N[C@@H](CCSC)C(=O)N[C@@H](CCC(=O)O)C(=O)N[C@@H](CCCN=C(N)N)C(=O)N[C@H](C(=O)N[C@@H](CCC(=O)O)C(=O)N[C@@H](Cc1c[nH]c2ccccc12)C(=O)N[C@@H](CC(C)C)C(=O)N[C@@H](CCCN=C(N)N)C(=O)N[C@@H](CCCCN)C(=O)N[C@@H](CCCCN)C(=O)N[C@@H](CC(C)C)C(=O)N[C@@H](CCC(N)=O)C(=O)N[C@@H](CC(=O)O)C(=O)N[C@H](C(=O)N[C@@H](Cc1cnc[nH]1)C(=O)N[C@@H](CC(N)=O)C(=O)N[C@@H](Cc1ccccc1)C(=O)O)C(C)C)C(C)C` [PTH(1-34)]?
A: effective dose [1]: 10^−8 M; cAMP production [2]: increased production of cAMP; bioavailability ([3]; inhalation of dry powders): 34%; bioavailability ([3]; intratracheal instillation): 40%; Safranin O-stained area to total area (red:total, GAG) vs contralateral control [4, 6]: not significantly different; type II collagen stained area to total area vs contralateral control [4, 6]: not significantly different; type X collagen-stained chondrocytes vs OA group ([4]; OA-induced study joints, after 5 weeks of treatment): less positive stained cells; Safranin O-stained area to total area (red:total, GAG) vs contralateral control [4, 7]: not significantly different from the contralateral control cartilage; type II collagen stained area to total area (brown:total) vs contralateral control [4, 7]: not significantly different from the contralateral control cartilage; bioavailability [5]: 5% and 2.1%
